From PubChem BioAssay AID1745844 (Carcinogenic Potency Database (CPDB), 2022)
Several values for one entry are separate records, joined by “and”; a condition that tells them apart may be missing. Identical values can stand only once. Activity calls are given as the source filed them. How the calls were made is not given here.

Tested on: rodent lifetime carcinogenesis bioassay, tumor incidence TD50
Assay: chronic cancer bioassays in animals – CPDB, compiled studies (AID 1745844)
Settings: inhaled; for carcinogen call: lesion: one or several types, types not named

Structure (SMILES): C=CC(=C)Cl
- TD50 (hamster, strain Syrian Golden, females, site: any site (literature study), lesion: several types, types named in the paper, dosed 78 weeks, study length 78 weeks): 180 mg/kg/day (inactive)
- carcinogen call (hamster, strain Syrian Golden, females, site: liver, dosed 78 weeks, study length 78 weeks): negative (inactive)
- carcinogen call (hamster, strain Syrian Golden, females, site: lung, dosed 78 weeks, study length 78 weeks): negative (inactive)
- TD50 (hamster, strain Syrian Golden, males, site: any site (literature study), lesion: several types, types named in the paper, dosed 78 weeks, study length 78 weeks): 110 mg/kg/day (inactive)
- carcinogen call (hamster, strain Syrian Golden, males, site: liver, dosed 78 weeks, study length 78 weeks): negative (inactive)
- carcinogen call (hamster, strain Syrian Golden, males, site: lung, dosed 78 weeks, study length 78 weeks): negative (inactive)
- TD50 (mouse, strain B6C3F1, females, site: Harderian gland, lesion: adenoma + carcinoma, dosed 104 weeks, study length 104 weeks): 55.2 mg/kg/day
- TD50 (mouse, strain B6C3F1, females, site: Harderian gland, lesion: adenoma, dosed 104 weeks, study length 104 weeks): 61.3 mg/kg/day
- TD50 (mouse, strain B6C3F1, females, site: Zymbal's gland, lesion: carcinoma, dosed 104 weeks, study length 104 weeks): 864 mg/kg/day
- TD50 (mouse, strain B6C3F1, females, site: all sites + forestomach + Harderian gland + liver + lung + mesentery + mammary gland + subcutaneous tissue + Zymbal's gland, lesion: hemangioma + hemangiosarcoma + squamous-cell carcinoma + squamous-cell papilloma + adenoma + carcinoma + hepatocellular adenoma + hepa, dosed 104 weeks, study length 104 weeks): 4 mg/kg/day
- TD50 (mouse, strain B6C3F1, females, site: all sites, lesion: hemangioma + hemangiosarcoma, dosed 104 weeks, study length 104 weeks): 21.5 mg/kg/day
- TD50 (mouse, strain B6C3F1, females, site: all sites, lesion: hemangioma, dosed 104 weeks, study length 104 weeks): 134 mg/kg/day
- TD50 (mouse, strain B6C3F1, females, site: all sites, lesion: hemangiosarcoma, dosed 104 weeks, study length 104 weeks): 22.2 mg/kg/day
- TD50 (mouse, strain B6C3F1, females, site: any site (literature study), lesion: several types, types named in the paper, dosed 104 weeks, study length 104 weeks): 3.92 mg/kg/day
- TD50 (mouse, strain B6C3F1, females, site: forestomach, lesion: squamous-cell carcinoma + squamous-cell papilloma, dosed 104 weeks, study length 104 weeks): 332 mg/kg/day
- TD50 (mouse, strain B6C3F1, females, site: liver, lesion: hepatocellular adenoma + hepatoblastoma + hepatocellular carcinoma, dosed 104 weeks, study length 104 weeks): 7.07 mg/kg/day
- TD50 (mouse, strain B6C3F1, females, site: liver, lesion: hepatocellular adenoma + hepatocellular carcinoma, dosed 104 weeks, study length 104 weeks): 7.07 mg/kg/day
- TD50 (mouse, strain B6C3F1, females, site: liver, lesion: hepatocellular adenoma, dosed 104 weeks, study length 104 weeks): 19.8 mg/kg/day
- TD50 (mouse, strain B6C3F1, females, site: liver, lesion: hepatocellular carcinoma, dosed 104 weeks, study length 104 weeks): 15.2 mg/kg/day
- TD50 (mouse, strain B6C3F1, females, site: lung, lesion: alveolar/bronchiolar adenoma + alveolar/bronchiolar carcinoma, dosed 104 weeks, study length 104 weeks): 5.36 mg/kg/day
- TD50 (mouse, strain B6C3F1, females, site: lung, lesion: alveolar/bronchiolar adenoma, dosed 104 weeks, study length 104 weeks): 8.65 mg/kg/day
- TD50 (mouse, strain B6C3F1, females, site: lung, lesion: alveolar/bronchiolar carcinoma, dosed 104 weeks, study length 104 weeks): 14.6 mg/kg/day
- TD50 (mouse, strain B6C3F1, females, site: mammary gland, lesion: adenoma + carcinoma, dosed 104 weeks, study length 104 weeks): 65.6 mg/kg/day
- TD50 (mouse, strain B6C3F1, females, site: mammary gland, lesion: carcinoma, dosed 104 weeks, study length 104 weeks): 75.3 mg/kg/day
- TD50 (mouse, strain B6C3F1, females, site: mesentery, lesion: hemangioma + hemangiosarcoma, dosed 104 weeks, study length 104 weeks): 25.9 mg/kg/day
- TD50 (mouse, strain B6C3F1, females, site: mesentery, lesion: hemangiosarcoma, dosed 104 weeks, study length 104 weeks): 32.2 mg/kg/day
- TD50 (mouse, strain B6C3F1, females, site: mesentery, lesion: sarcoma, dosed 104 weeks, study length 104 weeks): 40 mg/kg/day
- TD50 (mouse, strain B6C3F1, females, site: pituitary gland, lesion: pars distalis adenoma, dosed 104 weeks, study length 104 weeks): 68.1 mg/kg/day
- TD50 (mouse, strain B6C3F1, females, site: subcutaneous tissue, lesion: sarcoma, dosed 104 weeks, study length 104 weeks): 28.9 mg/kg/day
- TD50 (mouse, strain B6C3F1, females, site: uterus, lesion: endometrial stromal polyp, dosed 104 weeks, study length 104 weeks): 133 mg/kg/day
- TD50 (mouse, strain B6C3F1, males, site: Harderian gland, lesion: adenoma + adenoma, bilateral + carcinoma, dosed 104 weeks, study length 104 weeks): 60.9 mg/kg/day
- TD50 (mouse, strain B6C3F1, males, site: Harderian gland, lesion: adenoma + adenoma, bilateral, dosed 104 weeks, study length 104 weeks): 79.5 mg/kg/day
- TD50 (mouse, strain B6C3F1, males, site: all sites + forestomach + Harderian gland + lung, lesion: hemangioma + hemangiosarcoma + squamous-cell carcinoma + squamous-cell papilloma + adenoma + adenoma, bilateral + carcinoma + alveolar, dosed 104 weeks, study length 104 weeks): 8.68 mg/kg/day
- TD50 (mouse, strain B6C3F1, males, site: all sites, lesion: hemangioma + hemangiosarcoma, dosed 104 weeks, study length 104 weeks): 17.9 mg/kg/day and 21.3 mg/kg/day
- TD50 (mouse, strain B6C3F1, males, site: all sites, lesion: hemangiosarcoma, dosed 104 weeks, study length 104 weeks): 19.1 mg/kg/day and 23.8 mg/kg/day
- TD50 (mouse, strain B6C3F1, males, site: any site (literature study), lesion: several types, types named in the paper, dosed 104 weeks, study length 104 weeks): 28.4 mg/kg/day
- TD50 (mouse, strain B6C3F1, males, site: forestomach, lesion: squamous-cell carcinoma + squamous-cell papilloma, dosed 104 weeks, study length 104 weeks): 291 mg/kg/day
- TD50 (mouse, strain B6C3F1, males, site: forestomach, lesion: squamous-cell papilloma, dosed 104 weeks, study length 104 weeks): 335 mg/kg/day
- TD50 (mouse, strain B6C3F1, males, site: kidney, lesion: tubule adenoma, dosed 104 weeks, study length 104 weeks): 301 mg/kg/day and 129 mg/kg/day
- TD50 (mouse, strain B6C3F1, males, site: liver, lesion: hemangiosarcoma, dosed 104 weeks, study length 104 weeks): 123 mg/kg/day
- TD50 (mouse, strain B6C3F1, males, site: liver, lesion: hepatoblastoma + hepatocellular carcinoma, dosed 104 weeks, study length 104 weeks): 19.5 mg/kg/day
- TD50 (mouse, strain B6C3F1, males, site: liver, lesion: hepatocellular adenoma + hepatoblastoma + hepatocellular carcinoma, dosed 104 weeks, study length 104 weeks): 39.9 mg/kg/day
- TD50 (mouse, strain B6C3F1, males, site: liver, lesion: hepatocellular adenoma + hepatocellular carcinoma, dosed 104 weeks, study length 104 weeks): 42.5 mg/kg/day
- TD50 (mouse, strain B6C3F1, males, site: liver, lesion: hepatocellular adenoma, dosed 104 weeks, study length 104 weeks): 71.9 mg/kg/day
- TD50 (mouse, strain B6C3F1, males, site: liver, lesion: hepatocellular carcinoma, dosed 104 weeks, study length 104 weeks): 21.6 mg/kg/day
